{
  "source": "ChEMBL document CHEMBL1136785",
  "about": "“Design and structure-activity relationships of 2-alkyl-3-aminomethyl-6-(3-methoxyphenyl)-7-methyl-8-(2-fluorobenzyl)imidazolo[1,2-a]pyrimid-5-ones as potent GnRH receptor antagonists” (J Med Chem, 2003)",
  "biological_target": "T1, Gonadotropin-releasing hormone receptor (Homo sapiens, UniProt P30968)",
  "T1 sequence (P30968 whole entry)": "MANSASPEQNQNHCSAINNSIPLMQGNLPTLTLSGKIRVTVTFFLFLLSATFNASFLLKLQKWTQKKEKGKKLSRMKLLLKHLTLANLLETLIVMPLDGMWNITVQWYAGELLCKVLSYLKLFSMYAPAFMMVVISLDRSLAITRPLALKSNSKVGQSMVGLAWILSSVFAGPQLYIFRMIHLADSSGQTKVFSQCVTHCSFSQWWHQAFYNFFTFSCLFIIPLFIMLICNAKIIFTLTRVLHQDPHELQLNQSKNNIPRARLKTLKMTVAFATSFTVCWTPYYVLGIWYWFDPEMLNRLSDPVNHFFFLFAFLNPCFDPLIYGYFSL",
  "assay": "Binding affinity against human gonadotropin-releasing hormone receptor",
  "data": [
    {"smiles": "COCCN(C)Cc1c(C(C)(C)C)nc2n(Cc3ccccc3F)c(C)c(-c3cccc(OC)c3)c(=O)n12", "values": [
      {"measurement": "Ki", "value": 430, "unit": "nM"}
    ]},
    {"smiles": "COC(=O)C(C)(C)c1nc2n(Cc3ccccc3F)c(C)c(-c3cccc(OC)c3)c(=O)n2c1CN(C)Cc1cccnc1", "values": [
      {"measurement": "Ki", "value": 400, "unit": "nM"}
    ]},
    {"smiles": "COc1cccc(-c2c(C)n(Cc3ccccc3F)c3nc4c(n3c2=O)CN(CCc2ccccn2)CC4(C)C)c1", "values": [
      {"measurement": "Ki", "value": 12000, "unit": "nM"}
    ]},
    {"smiles": "COC(=O)C(C)(C)c1nc2n(Cc3ccccc3F)c(C)c(-c3cccc(OC)c3)c(=O)n2c1CN1CCc2ccccc2C1", "values": [
      {"measurement": "Ki", "value": 9200, "unit": "nM"}
    ]},
    {"smiles": "CCN(CC)CCN(C)Cc1c(C(C)(C)C)nc2n(Cc3ccccc3F)c(C)c(-c3cccc(OC)c3)c(=O)n12", "values": [
      {"measurement": "Ki", "value": 260, "unit": "nM"}
    ]},
    {"smiles": "COC(=O)C(C)(C)c1nc2n(Cc3ccccc3F)c(C)c(-c3cccc(OC)c3)c(=O)n2c1CN(C)CCc1ccccc1", "values": [
      {"measurement": "Ki", "value": 130, "unit": "nM"}
    ]},
    {"smiles": "COc1cccc(-c2c(C)n(Cc3ccccc3F)c3nc(C(C)(C)C)c(CNCC4CCCC4)n3c2=O)c1", "values": [
      {"measurement": "Ki", "value": 6400, "unit": "nM"}
    ]},
    {"smiles": "COCCN(C)Cc1c(C(C)(C)C(=O)OC)nc2n(Cc3ccccc3F)c(C)c(-c3cccc(OC)c3)c(=O)n12", "values": [
      {"measurement": "Ki", "value": 300, "unit": "nM"}
    ]},
    {"smiles": "COC(=O)C(C)(C)c1nc2n(Cc3ccccc3F)c(C)c(-c3cccc(OC)c3)c(=O)n2c1CN1CCN(C)CC1", "values": [
      {"measurement": "Ki", "value": 7700, "unit": "nM"}
    ]},
    {"smiles": "COc1cccc(-c2c(C)n(Cc3ccccc3F)c3nc(C(C)(C)C)c(CNCc4ccccc4)n3c2=O)c1", "values": [
      {"measurement": "Ki", "value": 240, "unit": "nM"}
    ]},
    {"smiles": "COc1cccc(-c2c(C)n(Cc3ccccc3F)c3nc(C(C)(C)CO)c(CN(C)Cc4ccccn4)n3c2=O)c1", "values": [
      {"measurement": "Ki", "value": 8, "unit": "nM"}
    ]},
    {"smiles": "COC(=O)C(C)(C)c1nc2n(Cc3ccccc3F)c(C)c(-c3cccc(OC)c3)c(=O)n2c1CN(C)Cc1ccccc1", "values": [
      {"measurement": "Ki", "value": 59, "unit": "nM"}
    ]},
    {"smiles": "CCCCN(C)Cc1c(C(C)(C)C(=O)OC)nc2n(Cc3ccccc3F)c(C)c(-c3cccc(OC)c3)c(=O)n12", "values": [
      {"measurement": "Ki", "value": 320, "unit": "nM"}
    ]},
    {"smiles": "COc1cccc(-c2c(C)n(Cc3ccccc3F)c3nc(C(C)(C)C)c(CN(C)CCc4ccccn4)n3c2=O)c1", "values": [
      {"measurement": "Ki", "value": 5.2, "unit": "nM"}
    ]},
    {"smiles": "COC(=O)C(C)(C)c1nc2n(Cc3ccccc3F)c(C)c(-c3cccc(OC)c3)c(=O)n2c1CN(C)Cc1ccccc1O", "values": [
      {"measurement": "Ki", "value": 490, "unit": "nM"}
    ]},
    {"smiles": "COc1cccc(-c2c(C)n(Cc3ccccc3F)c3nc(C(C)(C)CNCCc4ccccn4)cn3c2=O)c1", "values": [
      {"measurement": "Ki", "value": 350, "unit": "nM"}
    ]},
    {"smiles": "COc1cccc(-c2c(C)n(Cc3ccccc3F)c3nc(C(C)(C)C)c(CNCC4CCCCC4)n3c2=O)c1", "values": [
      {"measurement": "Ki", "value": 430, "unit": "nM"}
    ]},
    {"smiles": "COc1cccc(-c2c(C)n(Cc3ccccc3F)c3nc(C(C)(C)C)c(CN(C)Cc4ccccn4)n3c2=O)c1", "values": [
      {"measurement": "Ki", "value": 11, "unit": "nM"}
    ]},
    {"smiles": "COc1cccc(-c2c(C)n(Cc3ccccc3F)c3nc(C(C)(C)C)c(CN(C)C)n3c2=O)c1", "values": [
      {"measurement": "Ki", "value": 1700, "unit": "nM"}
    ]},
    {"smiles": "COc1cccc(-c2c(C)n(Cc3ccccc3F)c3nc(C(C)(C)C)c(CN(C)Cc4ccccc4)n3c2=O)c1", "values": [
      {"measurement": "Ki", "value": 72, "unit": "nM"}
    ]},
    {"smiles": "CCN(CCc1ccccn1)Cc1c(C(C)(C)C)nc2n(Cc3ccccc3F)c(C)c(-c3cccc(OC)c3)c(=O)n12", "values": [
      {"measurement": "Ki", "value": 7.9, "unit": "nM"}
    ]},
    {"smiles": "COc1cccc(-c2c(C)n(Cc3ccccc3F)c3nc(C(C)(C)C)c(CNCc4ccccn4)n3c2=O)c1", "values": [
      {"measurement": "Ki", "value": 30, "unit": "nM"}
    ]},
    {"smiles": "COC(=O)C(C)(C)c1nc2n(Cc3ccccc3F)c(C)c(-c3cccc(OC)c3)c(=O)n2c1CN(C)Cc1ccccn1", "values": [
      {"measurement": "Ki", "value": 4.2, "unit": "nM"}
    ]},
    {"smiles": "COc1cccc(-c2c(C)n(Cc3ccccc3F)c3nc(C(C)(C)C)c(CN(C)CCc4ccccc4)n3c2=O)c1", "values": [
      {"measurement": "Ki", "value": 190, "unit": "nM"}
    ]},
    {"smiles": "COC(=O)C(C)(C)c1nc2n(Cc3ccccc3F)c(C)c(-c3cccc(OC)c3)c(=O)n2c1CN(C)CCc1ccccn1", "values": [
      {"measurement": "Ki", "value": 1.2, "unit": "nM"}
    ]},
    {"smiles": "COC(=O)C(C)(C)c1nc2n(Cc3ccccc3F)c(C)c(-c3cccc(OC)c3)c(=O)n2c1CN1CCC(c2ccccc2)CC1", "values": [
      {"measurement": "Ki", "value": 5100, "unit": "nM"}
    ]},
    {"smiles": "COc1cccc(-c2c(C)n(Cc3ccccc3F)c3nc(C(C)(C)C)c(CNCCc4ccccn4)n3c2=O)c1", "values": [
      {"measurement": "Ki", "value": 160, "unit": "nM"}
    ]}
  ]
}
